How the values were obtained:
[1] = system: giant foxtail; test: Test A preemergence; format: in vivo, Setaria faberii; details: for Foxtail, Giant plant response rating: 500 g ai/ha
Outline: (§1)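 Compounds in non-phytotoxic solvent with surfactant applied as soil spray preemergence, or postemergence to plants 2-10 cm at one- to two-leaf stage, in loam/sand. After approximately 10 days in greenhouse, injury rated visually versus untreated controls, 0 (no effect) to 100 (complete control).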

[2] = system: morningglory; test: Test A preemergence; format: in vivo, Ipomoea spp.; details: for Morningglory plant response rating: 500 g ai/ha
Outline: as §1

[3] = system: velvetleaf; test: Test A preemergence; format: in vivo, Abutilon theophrasti; details: for Velvetleaf plant response rating: 500 g ai/ha
Outline: as §1

[4] = system: corn; test: Test A preemergence; format: in vivo, Zea mays; details: for Corn plant response rating: 500 g ai/ha
Outline: as §1

[5] = system: large (Lg) crabgrass; test: Test A postemergence; format: in vivo, Digitaria sanguinalis; details: 0 to 100 scale where 0 is no effect and 100 is complete control
Outline: as §1

[6] = system: pigweed; test: Test A postemergence; format: in vivo, Amaranthus retroflexus; details: 0 to 100 scale where 0 is no effect and 100 is complete control; for Plant response rating, Pigweed: 500 g ai/ha; for Pigweed plant response rating: 125 g ai/ha
Outline: as §1

[7] = system: velvetleaf; test: Test A postemergence; format: in vivo, Abutilon theophrasti; details: 0 to 100 scale where 0 is no effect and 100 is complete control; for Plant response rating, Velvetleaf: 500 g ai/ha; for Velvetleaf plant response rating: 125 g ai/ha
Outline: as §1

[8] = system: wheat; test: Test A postemergence; format: in vivo, Triticum aestivum; details: 0 to 100 scale where 0 is no effect and 100 is complete control; for Plant response rating, Wheat: 500 g ai/ha; for Wheat plant response rating: 125 g ai/ha
Outline: as §1

[9] = system: barnyardgrass; test: Test B flooded paddy test; format: in vivo, Echinochloa crus-galli; details: Flood, 250 g ai/ha; 0 to 100 scale where 0 is no effect and 100 is complete control
Outline: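 Plants were grown to the 2-leaf stage, then pots were flooded to 3 cm above the soil and compounds were applied directly into the paddy water. That depth was held throughout, and after 13 to 15 days in the greenhouse injury was rated visually against controls on a 0–100 scale (0 no effect, 100 complete control).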

[10] = system: wheat, winter; test: Test C preemergence; format: in vivo, Triticum aestivum; details: for Wheat plant response rating: preemergence; for Plant response rating, Wheat: Preemergence, scale 0 to 100, 0 no effect, 100 complete control
Outline: (§2)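 Preemergence: seeds sown in a loam soil–sand blend and sprayed with test chemical in a non-phytotoxic solvent mixture containing surfactant. Postemergence: plants at 2 to 18 cm (1- to 4-leaf stage) in peat-based medium, treated with the same formulation. Greenhouse 13 to 15 days, then visual rating 0 (no effect) to 100 (complete control).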

[11] = system: lambsquarters; test: Test C preemergence; format: in vivo, Chenopodium album; details: for Lambsquarters plant response rating: preemergence; for Plant response rating, Lambsquarters: Preemergence, scale 0 to 100, 0 no effect, 100 complete control
Outline: as §2

[12] = system: barnyardgrass; test: Test C preemergence; format: in vivo, Echinochloa crus-galli; details: for Barnyardgrass plant response rating: preemergence; for Plant response rating, Barnyardgrass: Preemergence, scale 0 to 100, 0 no effect, 100 complete control
Outline: as §2

[13] = 125 g ai/ha, 0 to 100 scale where 0 is no effect and 100 is complete control
[14] = 0 to 100 scale, 0 no effect, 100 complete control, approx. 10 days
[15] = 16 g ai/ha, scale 0 to 100 (0 no effect, 100 complete control)
[16] = 62 g ai/ha, scale 0 (no effect) to 100 (complete control)
[17] = 125 g ai/ha, scale 0 (no effect) to 100 (complete control)
[18] = 0 to 100 scale where 0 is no effect and 100 is complete control

| SMILES | Plant response rating, Foxtail, Giant [1, 13] | Plant response rating, Corn [4, 13] | Plant response rating, Crabgrass, Large ([5]; 500 g ai/ha) | Plant response rating, Pigweed [6] | Plant response rating, Velvetleaf [7] | Plant response rating, Wheat [8] | Plant response rating, Barnyardgrass [9] | Wheat plant response rating [10, 15] | Wheat plant response rating [10, 16] | Wheat plant response rating [10, 17] | Lambsquarters plant response rating [11, 15] | Lambsquarters plant response rating [11, 16] | Lambsquarters plant response rating [11, 17] | Barnyardgrass plant response rating [12, 15] | Barnyardgrass plant response rating [12, 16] | Barnyardgrass plant response rating [12, 17] | Plant response rating, Barnyardgrass ([12]; 31 g ai/ha) | Foxtail, Giant plant response rating [1, 18] | Pigweed plant response rating [6] | Wheat plant response rating [8] | other results |
| --- | --- | --- | --- | --- | --- | --- | --- | --- | --- | --- | --- | --- | --- | --- | --- | --- | --- | --- | --- | --- | --- |
| Fc1cnc(Oc2cccc(C(F)F)c2-n2cc(Br)cn2)nc1 [Compound 112] | 100 | 0 | 100 | 100 | 100 | 70 | 0 | 0 | 0 | 10 | 98 | 100 | 98 | 0 | 30 | 90 | 5 |  |  |  | Foxtail, Giant plant response rating [1, 14]: 100; Plant response rating, Morningglory [2, 13]: 80; Morningglory plant response rating [2, 14]: 90; Plant response rating, Velvetleaf [3, 13]: 90; Corn plant response rating [4, 14]: 50; Plant response rating, Crabgrass, Large ([5]; 125 g ai/ha): 60; Plant response rating, Wheat ([10]; 31 g ai/ha): 0; Plant response rating, Lambsquarters ([11]; 31 g ai/ha): 100 |
| Fc1cccc(Oc2ncc(Cl)cn2)c1-n1cc(I)cn1 [Compound 179] | 100 | 0 | 100 | 100 | 100 | 60 | 20 | 0 | 0 | 5 | 85 | 100 | 100 | 5 | 90 | 100 | 10 | 100 | 100 | 30 | Morningglory plant response rating (0 to 100 scale) ([2]; 125 g ai/ha): 10; Morningglory plant response rating [2, 18]: 80; Velvetleaf plant response rating (0 to 100 scale) ([3]; 125 g ai/ha): 60; Velvetleaf plant response rating [3, 18]: 80; Corn plant response rating [4, 18]: 10; Crabgrass, Large plant response rating ([5]; 125 g ai/ha): 90; Velvetleaf plant response rating [7]: 100 |
| CCOc1cnn(-c2ccccc2Oc2ncc(Cl)cn2)c1 [Compound 187] |  |  | 100 | 100 | 100 | 60 | 0 | 0 |  | 0 | 5 |  | 100 | 5 |  | 90 |  | 100 | 70 | 20 | Foxtail, Giant plant response rating (0 to 100 scale) ([1]; 125 g ai/ha): 100; Morningglory plant response rating (0 to 100 scale) ([2]; 125 g ai/ha): 0; Morningglory plant response rating [2, 18]: 50; Velvetleaf plant response rating (0 to 100 scale) ([3]; 125 g ai/ha): 80; Velvetleaf plant response rating [3, 18]: 100; Corn plant response rating (0 to 100 scale) ([4]; 125 g ai/ha): 0; Corn plant response rating [4, 18]: 40; Crabgrass, Large plant response rating ([5]; 125 g ai/ha): 60; Velvetleaf plant response rating [7]: 100; Plant response rating, Wheat ([10]; 62 g ai/ha): 0; Plant response rating, Lambsquarters ([11]; 62 g ai/ha): 98; Plant response rating, Barnyardgrass ([12]; 62 g ai/ha): 65 |
| COc1cnn(-c2c(C#N)cccc2Oc2ncc(Cl)cn2)c1 [Compound 137] | 90 |  |  | 100 |  | 70 | 0 | 0 | 0 | 0 | 100 | 100 | 100 | 0 | 10 | 40 | 5 | 100 | 70 | 30 |  |
